Laboratory results: patent publication US9662303B2, “Composition and method for treating cancer” (PG-Pharma, LLC, priority 2006, dated 2017)
Like-named read-outs stand apart in the source and are kept apart here.

Tests used:
A549 = details: ref (9); cited from earlier work
ovarian A2780 = details: ref (10); cited from earlier work
Peyer's patches = test: Effect on Peyer's patches; details: in vivo
From the text: The manipulation of various homing factors e.g. L-selectin-mAb LM1-3 and addressin-mAdCAM-1 and integrins such as alpha4beta7 as therapeutic targets on Peyer's patches dendritic cells is a rapidly expanding field in drug development against intestinal bowel diseases (IBD) e.g. colitis, colorectal carcinoma and Chrohn's disease (20;21). DTS caused an enlargement in Peyer's patches possible by an activation of cell proliferation. Thus, based on this finding we hereby proposed that the effect of DTS on the Peyer's patches should be elucidated with the hope of developing drugs against IBD.

Jurkat leukaemia = details: ref (10); cited from earlier work
bone marrow = details: cited from earlier work
[1] = test system: human SH-SY5Y neuroblatsoma cells; test: Anti-proliferation/cytotoxic activity of DTS and DTS-BSA complex on SH-SY5Y cells; assay type: cell-based; details: for Percentage anti-proliferation activity: SH-SY5Y
From the text: 3. […] 4. […] See Williams et al., (2004) West Indian Medical Journal 53 (4) pp. 208-219 for the preparation of cell culture medium and assessment of anti-proliferation/cytotoxic activity on the human SH-SY5Y neuroblatsoma cells (12); the previous reference is hereby incorporated by reference in its entirety. A summary of the results from an experiment involving the above synthesis method were as follows: […]

Starfish embryos = details: ref (11); cited from earlier work
[2] = molecular target: mitogen-activated protein kinases phosphatase 1 (MKP-1) (Homo sapiens, UniProt P28562); details: in vitro; ref (12); cited from earlier work
mitogen-activated protein kinases phosphatase 1 (MKP-1), sequence (P28562 whole entry, species assumed): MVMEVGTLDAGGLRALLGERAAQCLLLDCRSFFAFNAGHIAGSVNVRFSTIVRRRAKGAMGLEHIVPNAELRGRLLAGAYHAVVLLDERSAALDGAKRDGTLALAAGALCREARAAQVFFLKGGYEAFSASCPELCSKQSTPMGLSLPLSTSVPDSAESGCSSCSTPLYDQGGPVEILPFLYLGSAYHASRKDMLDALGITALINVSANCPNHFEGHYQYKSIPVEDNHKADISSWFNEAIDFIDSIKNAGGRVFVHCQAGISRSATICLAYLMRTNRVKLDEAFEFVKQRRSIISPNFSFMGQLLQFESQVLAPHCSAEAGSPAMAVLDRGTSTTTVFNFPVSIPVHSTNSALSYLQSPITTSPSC

[3] = test system: Erythrocytes (red blood cells, RBCs); details: RBCs separated from WBCs, in buffer, concentrations higher than those effective on cancer cells; refs (11;32); cited from earlier work
fibrosarcoma HT1080 = details: ref (10); cited from earlier work
[4] = test system: A637 primary bladder carcinoma; details: ref (9); cited from earlier work
cadherin-5 = details: human SH-SY5YTRK-A neuroblastoma cells pre-treated with NgF; ref (11); cited from earlier work
breast M231 = details: ref (10); cited from earlier work
[5] = molecular target: T1, Bovine Serum Albumin (BSA) (Bos taurus, UniProt P02769); details: personal communication; cited from earlier work
T1 sequence (P02769 25-607): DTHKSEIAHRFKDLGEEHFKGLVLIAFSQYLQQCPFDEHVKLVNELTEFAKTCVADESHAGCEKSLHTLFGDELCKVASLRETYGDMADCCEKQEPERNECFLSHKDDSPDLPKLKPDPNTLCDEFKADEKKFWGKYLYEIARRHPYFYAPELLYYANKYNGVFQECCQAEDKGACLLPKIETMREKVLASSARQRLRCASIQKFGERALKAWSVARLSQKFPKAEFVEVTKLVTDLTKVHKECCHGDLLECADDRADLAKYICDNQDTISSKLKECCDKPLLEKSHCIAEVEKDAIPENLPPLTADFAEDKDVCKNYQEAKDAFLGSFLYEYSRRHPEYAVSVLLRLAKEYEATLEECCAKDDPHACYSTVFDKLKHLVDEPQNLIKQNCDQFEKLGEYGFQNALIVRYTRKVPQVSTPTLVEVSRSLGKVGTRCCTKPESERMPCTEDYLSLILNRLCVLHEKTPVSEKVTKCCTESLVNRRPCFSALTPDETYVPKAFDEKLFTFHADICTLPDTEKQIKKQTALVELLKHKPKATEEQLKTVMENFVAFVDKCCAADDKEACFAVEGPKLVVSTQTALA

[6] = Spectrophotometric absorbance binding experiments on pure tyrosine and phenylalanine; details: room temperature
From the text: Here is an outline of these experiments:
1. A plot of Absorbance (nm) with time (mins) of the interaction with tyrosine and DTS gives a normal distribution (Gaussian) with the highest optimum at room temperature.
2. As temperature is increased there is a lowering of the optimum on the graph until a straight line is created.
4. Phenylalanine, which is an aromatic amino acid, gives a straight line at room temperature with DTS, while DTS and tyrosine give a Gaussian distribution; the height of the curve is a function of the ratio of the DTS used.

immune system = test: Stimulation of the immune system in mice; assay type: in vivo; details: 11 mg/kg body weight
Method: The DTS-albumin formulation of the present invention can also be administered to a patient with a formulation dosage that is predetermined based upon data specific to that patient. For example, weight, metabolic factors, genetic factors, etc. can contribute to varying predetermined dosage amounts that are used to prescribe the specific predetermined dosage to the patient. Preferably the formulation dosage is between about 0.023 mg/kg and about 2.3 mg/kg body weight. […] The DTS-BSA complex was active at 0.5 ng/mL in vitro dose, a ratio of about 480. Thus, 11 divided by 480 is about 0.023 mg/Kg body weight (minimum). Similarly, the maximum is about 2.3 mg/Kg body weight. If we assumed that the maximum weigh of a human to be treated with the ATS-albumin complex Is 70 Kg, then the upper limit would be […]=1.61 mg/70 kg body weight.

adenocarcinoma HeLa = details: ref (10); cited from earlier work
[7] = test system: MAPKinase (erk 1 and erk 2); details: induced by basic fibroblast growth factor (bFGF); 1.0 μM; refs (7;11); cited from earlier work
thymus = details: old mice; refs (5;11); cited from earlier work
ovarian OVCAR4 = details: ref (10); cited from earlier work
SH-SY5Y neuroblastoma = details: cited from earlier work
MCF-7 mammary carcinoma = details: cited from earlier work
IPC-melanoma = details: ref (9), cited from earlier work
[8] = test system: human TE-671 sarcoma cell line; details: 0.56 μM, ref (9); cited from earlier work
[9] = test system: human fibroblast (HOFA) cell line; details: over seven days; ref (9); cited from earlier work
[10] = molecular target: T1, Bovine Serum Albumin (BSA); details: 500 ng/mL (0.5 μg/mL), pH 6.0; ref (11); cited from earlier work
mice = test: Toxicity to mice; assay type: in vivo; details: up to 30 mg/kg body weight
Method: In addition, concentration of up to 30 mg/kg body weigh was not toxic to mice. DTS seems to activate the bone marrow at 10 mg/kg body weight since granulocytes differential count was increased by 50% (5).

[11] = test system: non-small cell lung cancer H460; details: ref (10); cited from earlier work
Th-1 and Th-2 cytokines = details: Human Mixed Lymphocytes Responses, CD3 dependent activation, cited from earlier work

c1ccc(CSSSCc2ccccc2)cc1 [DTS, dibenzyl trisulphide]
IC50 (A549): 15800 nM
IC50 (ovarian A2780): 400 nM
Peyer's patches size (Peyer's patches): enlargement
IC50 (Jurkat leukaemia): 350 nM
increase of granulocytes differential count (bone marrow; 10 mg/kg body weight, ref (5)): 50%
production of granulocytes and erythrocytes (bone marrow; refs (5;11)): increased
effective in vitro dose ([1]; DTS alone, in vitro, cell system not stated): 240 ng/mL
Percentage anti-proliferation activity ([1]; DTS at 39 ng/mL (No BSA)): 1.68%
Percentage anti-proliferation activity ([1]; DTS at 78 ng/mL (No BSA)): 38.22%
Percentage anti-proliferation activity ([1]; DTS at 1.25 μg/mL (No BSA)): 93.00%
effect on protein biosynthesis (Starfish embryos): did not have any effect
binding of MKP-1 to its substrate OMFP [2]: enhance
effect on erythrocytes [3]: cell-cell attraction with morphological changes without lysis
IC50 (fibrosarcoma HT1080): 1900 nM
IC50 [4]: 18800 nM
expression of cadherin-5 (cadherin-5): up-regulate
IC50 (breast M231): 2400 nM
binding of glucose to BSA [5]: inhibit
binding to aromatic amino acids (absorbance) [6]: binds only to tyrosine
effect on the immune system (immune system): stimulated the immune system
IC50 (adenocarcinoma HeLa): 2500 nM
hyperphosphorylation of MAPKinase (erk 1 and erk 2) signalling [7]: 30%
thymic weight (thymus): increase
IC50 (ovarian OVCAR4): 1400 nM
enhancement of cytotoxic action by complexing DTS to Bovine Serum Albumin (SH-SY5Y neuroblastoma; SH-SY5Y in vitro, refs (11;12)): 70 fold
IC50 (SH-SY5Y neuroblastoma; SH-SY5Y neuroblastoma, ref (9)): 430 nM
IC50 (MCF-7 mammary carcinoma; ref (9)): 2240 nM
IC50 (MCF-7 mammary carcinoma; ref (10)): 6600 nM
nuclear morphology (mitotic catastrophe) (IPC-melanoma; IPC-melanoma cells exposed to 1.0 μM): nuclear fragmentation
IC50 (IPC-melanoma; IPC-melanoma): 2900 nM
anti-proliferation/cytotoxic activity [8]: 44.67%
toxicity to human fibroblast (HOFA) cell line [9]: not to be toxic
protection of BSA from denaturation [10]: 50.83%
toxicity to mice (mice): not toxic
IC50 [11]: 5100 nM
Th-2 cytokines such as IL-4 (Th-1 and Th-2 cytokines): up-regulated
Th-1 cytokines (Th-1 and Th-2 cytokines; ref (11)): down regulates
